Patent US6191271A, “Synthetic divalent sLex containing polylactosamines and methods for use” (Glycim Oy, priority 1998, dated 2001)
“Also recorded” adds a separate entry of the source.

Experiments:
[1] = test system: human Fuc-TIV; assay: Fucosyltransferase reaction with lysates of CHO-cells transfected with human Fuc-TIV; type: biochemical; settings: for share of Fuc-TIV fucose transfer at the terminal (sialylated or non-reducing end) LN unit: residue 3 / terminal LN unit
Experimental: (§1) Transfected Cells and Cell Lysates--The transfection of CHO-cells stably expressing human Fuc-TIV or Fuc-TVII has been described previously (Lowe, J. B., et al., J. Biol. Chem. 266:17467-17477 (1991); Natsuka, S., et al., J. Biol. Chem. 269:16789-16794 (1994)). For the enzyme assays, the cells were lysed in 1% Triton X-100 on ice in the presence of a mixture of protease inhibitors (16 μg/ml benzamidine HCl, 10 μg/ml phenanthroline, 10 μg/ml aprotinin, 10 μg/ml leupeptin, 10 μg/ml pepstatin A, 1 mM PMSF, Pharmingen, San Diego, Calif.).
(§2) Glycan 1 was from Sigma (St. Louis, Mo.), and glycan 2 from Oxford Glycosystems (Abingdon, UK). The others were synthesized enzymatically. Briefly, glycan 11 was constructed from GlcNAcβ1-3Galβ1-OMe (Sigma) by β1,4-galactosylation (Brew, K., et al., Proc. Natl. Acad Sci. USA 59:491-497 (1968)) followed by β1,3-N-acetylglycosaminylation (Seppo, A., et al., Biochem. Cell Biol. 68:44-53 (1990)) and a second round of β1-4-galactosylation. […] Glycan 3 was obtained from glycan 11 by α2,3-sialylation as in (Maaheimo, H., et al., Eur. J. Biochem. 234:616-625 (1995)). Glycan 12 was constructed from the GNβ1-3 'LNβ1-3 'LN (Leppanen, A., et al., Biochemistry 30:9287-9296(1991)) by β1,4-galactosylation, MALDI-TOF MS: (M+Na)^+ m/z 1137.1 (calc. 1137.0). Glycan 4 was obtained by glycan 12 by α2,3-sialylation. Glycan 15 was synthesized as in (Renkonen, O., et al., Biochem. Cell. Biol. 68:1032-1036 (1990)), MALDI-TOF MS: (M+Na)^+ m/z 1136.9 (calc. 1137.0). Glycan 16 was obtained by a 2,3-salylation of 15. In the synthesis of glycan 8, GNβ1-3'LNβ1-3'LN was α1,3 [^14 C]fucosylated at both LN units with α1,3/4-FucTs ofhuman milk and then β1,4-galactosylated. MALDI-TOF MS of the resulting octasaccharide LN β1-3'Lexβ1-3'Lex gave (M+Na)^+ m/z 1429.3 (calc. 1429.3). The octasaccharide was finally α2,3-sialylated to give glycan 8. Degradation of glycan 8 by sialidase and a mixture of β-galactosidaseand β-N-acetylhexosaminidase gave the neutral hexasaccharide [^14 C]Fucα1-3LNβ1-3'[^14 C]Fucα1-3LN, which chromatographed like an authentic marker on paper. In the synthesis of glycan 5, glycan 10 was converted to the pentasaccharide LNβ1-3 '(GNβ1-6 ')LN as in (Niemela, R., et al., Carbohydr. Res. 279:331-338 (1995); Maaheimo, H., et al., Carbohydr. Res. 297:53-59 (1997)), MALDI-TOF MS: (M+Na)^+ m/z 974.8 (calc. 974.9). The product was α2,3-sialylated, α1,3-fucosylated selectively at the distal, sialylated LN-unit (Niemela, R., et al., Carbohydr. Res. 279:331-338 (1995), and treated with β-N-acetylhexosaminidase for removal of the protecting β1-6GN-unit to give glycan 5. Glycan 6, in turn, was obtained by α1,3-fucosylating glycan 9 at the LN unit by human milk α1,3/4-Fuc-Ts. The product was then β1,4-galactosylated and finally α2,3-sialylated. Glycan 7 was synthesized by α2,3-sialylation of the heptasaccharide LNβ1-3'Lexβ1-3'LN,prepared by β1,4-galactosylation of GNβ1-3 'Lexβ1-3 'LN, which had been isolated from a mixture of monofucosylated isomers by wheat germ agglutinin (WGA)-agarose chromatography. LNβ1-3'Lexβ1-3'N was characterized by ^1 H-NMR-spectroscopy, MALDI-TOF MS: (M+Na)^+m/z 1282.5 (calc. 1282.5). Glycan 9 was obtained by β1,3-N-acetylglucosaminylation of LN (Seppo, A., et al., Biochem. Cell Biol. 68:44-53 (1990)), MALDI-TOF MS: (M+Na)^+ m/z 609.7 (calc. 609.5). Glycan 10 was synthesized by β1,4-galactosylation of glycan 9. Glycans 13 and 14 were obtained by separating monofucosylated derivatives of glycan 10 by WGA chromatography. Glycan 13, MALDI-TOF MS: (M+Na)^+ m/z 917.9 (calc. 917.8). Glycan 14, MALDI-TOF MS: (M+Na)^+ m/z 917.8 (calc. 917.8). […]

[2] = test system: human Fuc-TVII; assay: Fucosyltransferase reaction with lysates of CHO-cells transfected with human Fuc-TVII; type: biochemical
Experimental: as §1
as §2, with “chromatography.” for “chromatography. Glycan 13, MALDI-TOF MS: (M+Na)^+ m/z 917.9 (calc. 917.8). Glycan 14, MALDI-TOF MS: (M+Na)^+ m/z 917.8 (calc. 917.8).”

[3] = test system: rat lymphocyte L-selectin; assay: Stamper-Woodruff assay: in vitro lymphocyte adhesion to high endothelial venules (HEV) of peripheral rat lymph nodes; type: cell-based
Experimental: The affinities of the glycans of the invention towards rat lymphocyte L-selectin were analyzed with the in vitro Stamper-Woodruff binding assay. […] The important control saccharides, carrying at the distal termini the fucose-free sLN-residues instead of the sLex-epitopes are consistently without any inhibitory effect.
Lymphocytes were isolated from mesenterical lymph nodes of WF or DA rats and used immediately in the assay after isolation and pretreatment. […] Lymphocytes were over 99% of purity as quantitated by cytocentrifuge preparations. […]
In the Stamper-Woodruff assay 3×10^6 lymphocytes in 100 μl of RPMI containing 0.5% FCS were put on a frozen section inside a 23 mm wax circle, and rotated for 30 min at +4° C. […] The number of bound lymphocytes was calculated per high endothelial venules and 50 to 100 vessels were identified from each sample. […]
Lymphocyte adhesion was studied in a well documented L-selectin-dependent Stamper-Woodruff assay where frozen sections of lymph nodes were prepared, lymphocytes were placed on top of them, adhesion was permitted on a rotator and the number of adherent cells were quantitated visually. […]

## CC(=O)N[C@H]1C(O)O[C@H](CO)[C@@H](O[C@@H]2O[C@H](CO)[C@H](O)[C@H](O)[C@H]2O)[C@@H]1O (stereo partly shown) [glycan 1 (FIG. 8), N-acetyllactosamine, reference compound]
[1]
  fucosylation by Fuc-TIV, acceptor- and site-specificity (in words): rapidly fucosylates
[1]; reference acceptor for Fuc-TIV
  Transfer rate (reference acceptor): ~3.9 pmol/μg protein/h

## CC(=O)N[C@H]1[C@H]([C@H](O)[C@H](O)CO)O[C@@](O[C@H]2[C@@H](O)[C@@H](CO)O[C@@H](O[C@H]3[C@H](O)[C@@H](NC(C)=O)C(O)O[C@@H]3CO)[C@@H]2O)(C(=O)O)C[C@@H]1O (stereo partly shown) [glycan 2 (FIG. 8), SAα2-3 'LN, reference compound]
[2]; reference acceptor for Fuc-TVII
  Transfer rate (reference acceptor): ~3.2 pmol/μg protein/h
[1]
  fucosylation by Fuc-TIV, acceptor- and site-specificity (in words): ineffective

## LN1-3'LN1-3'LN [glycan 12 (FIG. 8)]
[1]
  share of Fuc-TIV fucose transfer at the innermost / reducing end LN unit (residue 1): 28%
  share of Fuc-TIV fucose transfer at the middle LN unit (residue 2): 47%
  share of Fuc-TIV fucose transfer at the terminal (sialylated or non-reducing end) LN unit: 25%

## LNβ1-3 'LNβ1-3'Galβ1-OMe [glycan 11 (FIG. 8)]
[1]
  fucosylation by Fuc-TIV, acceptor- and site-specificity (in words): transferred efficiently
  share of Fuc-TIV fucose transfer at the middle LN unit (residue 2): 67%
  share of Fuc-TIV fucose transfer at the terminal (sialylated or non-reducing end) LN unit: 33%

## LNβ1-3'Lex [glycan 14 (FIG. 8)]
[1]
  fucosylation by Fuc-TIV, acceptor- and site-specificity (in words): transferred rapidly

## Lexβ1-3 'LN [glycan 13 (FIG. 8)]
[1]
  fucosylation by Fuc-TIV, acceptor- and site-specificity (in words): transferred rapidly

## SAα2,3'LNβ1,3'LNβ1,3' (SAα2,3'LNβ1,3'LNβ1,6')LN [glycan 5]
[3]; 50 nM
  effect on lymphocyte adhesion to HEV (in words): no effect in lymphocyte binding to HEV
[3]; peripheral rat lymph node HEV
  effect on lymphocyte adhesion/binding to HEV (in words): did not show inhibitory effects

## SAα2-3'LNβ1-3'LNβ1-3'LN [glycan 4 (FIG. 8)]
[2]
  fucosylation by Fuc-TVII, acceptor- and site-specificity (in words): transfers preferentially to the sialylated, distal LN residue
[2]; residue 1 vs residue 3
  rate of Fuc-TVII transfer to the reducing end LN unit (residue 1), times slower than to the sialylated LN residue: 84 times slower
[2]; residue 2 vs residue 3
  rate of Fuc-TVII transfer to the middle LN unit (residue 2), times slower than to the sialylated LN residue: 17 times slower
[1]
  fucosylation by Fuc-TIV, acceptor- and site-specificity (in words): efficiently fucosylates; also recorded: transfers rapidly to sialoglycan 4, at both "inner" LN units; also recorded: efficient conversion of glycan 4 to glycan 8 in two steps catalyzed by Fuc-TIV, but not by Fuc-TVII
[1]; residue 3 vs residues 1 and 2
  rate of Fuc-TIV transfer to the sialylated LN unit (residue 3), times slower than to both inner LN units: 30-40 times slower

## SAα2-3'LNβ1-3'Lexβ1-3'LN [glycan 7 (FIG. 8)]
[1]
  fucosylation by Fuc-TIV, acceptor- and site-specificity (in words): effectively utilizes
  share of Fuc-TIV fucose transfer at the innermost / reducing end LN unit (residue 1): 86%
  share of Fuc-TIV fucose transfer at the terminal (sialylated or non-reducing end) LN unit: Less than 5%

## SAα2-3'LNβ1-3Lex β1-3'[^14 C]Lex [glycan 8 (FIG. 8)]
[2]
  fucosylation by Fuc-TVII, acceptor- and site-specificity (in words): nearly as rapidly as glycan 2
[1]
  fucosylation by Fuc-TIV, acceptor- and site-specificity (in words): ineffective
[1]; transfer to distal sialylated LN unit giving SAα2-3'Lexβ1-3'Lexβ1-3'Lex
  rate of Fuc-TIV reaction as % of the rate catalyzed by Fuc-TVII: 6-7%
